Laboratory results taken from PubChem BioAssay AID280 (DTP/NCI, 2004).
Where “and” joins values, the source holds several entries; their conditions need not be identical. Equal values may be shown once. Toxic doses and inconclusive results are not listed.

Tested on: nude mice, LOX melanoma ip, survival T/C
Test: NCI In Vivo Anticancer Drug Screen. Data for tumor model Human Amelanotic Melanoma (LOX) (intraperitoneal) in NU/NU BALB/C (nude) mice
Conditions: endpoint: median survival time, higher = longer survival
Protocol: The antitumor activity of compounds was measured in mice bearing transplantable tumors. Survival or tumor size were measured and the results are expressed as the measurement made in the treated group (T) divided by the measurement made in the vehicle treated control group (C). The tumor model used in this assay is Human Amelanotic Melanoma (LOX) (intraperitoneal) in NU/NU BALB/C (nude) mice

Question: Which T/C (dose: 2.0 mg/kg/injection, schedule: Q01DX015 (ip), vehicle: saline) does the source give for `Cc1c(N)nc([C@H](CC(N)=O)NC[C@H](N)C(N)=O)nc1C(=O)N[C@H](C(=O)N[C@H](C)[C@@H](O)[C@H](C)C(=O)N[C@H](C(=O)NCCc1nc(-c2nc(C(=O)NCCC[S+](C)C)cs2)cs1)[C@@H](C)O)C(OC1OC(CO)C(O)C(O)C1OC1OC(CO)C(O)C(OC(N)=O)C1O)c1cnc[nH]1` (stereo not given in full) here?
Answer: The T/C was 165 % of control.

Question: And the T/C (dose: 4.0 mg/kg/injection, schedule: Q01DX005 (ip), vehicle: saline)?
Answer: The T/C was 155 % of control.

Question: And the T/C (dose: 4.0 mg/kg/injection, schedule: Q01DX015 (ip), vehicle: saline)?
Answer: Its T/C is 159 % of control.

Question: What about the T/C (dose: 8.0 mg/kg/injection, schedule: Q01DX005 (ip), vehicle: saline) of the same molecule?
Answer: The T/C was 175 % of control.

Question: And the T/C (dose: 8.0 mg/kg/injection, schedule: Q01DX015 (ip), vehicle: saline)?
Answer: The T/C was 176 % of control.

Question: What about the T/C (dose: 8.0 mg/kg/injection, schedule: Q04DX003 (ip), vehicle: saline) of the same molecule?
Answer: The T/C was 160 % of control.

Question: What about the T/C (dose: 16.0 mg/kg/injection, schedule: Q01DX015 (ip), vehicle: saline) of the same molecule?
Answer: Its T/C is 87 % of control.

Question: And the T/C (dose: 24.0 mg/kg/injection, schedule: Q04DX003 (ip), vehicle: saline)?
Answer: The T/C was 110 % of control.

Question: And the T/C (dose: 32.0 mg/kg/injection, schedule: Q01DX001 (ip), vehicle: saline)?
Answer: The T/C was 150 % of control.

Question: What about the T/C (dose: 32.0 mg/kg/injection, schedule: Q01DX005 (ip), vehicle: saline) of the same molecule?
Answer: Its T/C is 175 % of control.

Question: What about the T/C (dose: 32.0 mg/kg/injection, schedule: Q04DX003 (ip), vehicle: saline) of the same molecule?
Answer: Its T/C is 176 % of control.

Question: And the T/C (dose: 36.0 mg/kg/injection, schedule: Q04DX003 (ip), vehicle: saline)?
Answer: Its T/C is 105 % of control.

Question: And the T/C (dose: 64.0 mg/kg/injection, schedule: Q01DX001 (ip), vehicle: saline)?
Answer: Its T/C is 151 % of control.

Question: What about the T/C (dose: 128.0 mg/kg/injection, schedule: Q01DX001 (ip), vehicle: saline) of the same molecule?
Answer: The T/C was 150 % of control.

Question: What does the source list for `NC(CNC(=O)CBr)C(=O)O` (stereo not given)?
Answer: T/C (dose: 12.5 mg/kg/injection, schedule: Q04DX003 (ip), vehicle: water): 97 % of control; T/C (dose: 25.0 mg/kg/injection, schedule: Q04DX003 (ip), vehicle: water): 93 % of control; T/C (dose: 50.0 mg/kg/injection, schedule: Q04DX003 (ip), vehicle: water): 98 % of control; T/C (dose: 100.0 mg/kg/injection, schedule: Q04DX003 (ip), vehicle: water): 90 % of control; T/C (dose: 200.0 mg/kg/injection, schedule: Q04DX003 (ip), vehicle: water): 88 % of control

Question: `O=[N+]([O-])c1ccc([I+]c2ccccc2)cc1` was tested. Which T/C (dose: 9.38 mg/kg/injection, schedule: Q04DX003 (ip), vehicle: Klucel (hydroxypropylcellulose) (HPC)) did it give?
Answer: Its T/C is 121 % of control.

Question: What about the T/C (dose: 16.2 mg/kg/injection, schedule: Q04DX003 (ip), vehicle: Klucel (hydroxypropylcellulose) (HPC)) of the same molecule?
Answer: The T/C was 115 % of control.

Question: And the T/C (dose: 27.0 mg/kg/injection, schedule: Q04DX003 (ip), vehicle: Klucel (hydroxypropylcellulose) (HPC))?
Answer: Its T/C is 114 % of control and 101 % of control.

Question: What about the T/C (dose: 37.5 mg/kg/injection, schedule: Q04DX003 (ip), vehicle: Klucel (hydroxypropylcellulose) (HPC)) of the same molecule?
Answer: Its T/C is 108 % of control.

Question: And the T/C (dose: 45.0 mg/kg/injection, schedule: Q04DX003 (ip), vehicle: Klucel (hydroxypropylcellulose) (HPC))?
Answer: Its T/C is 105 % of control and 120 % of control.

Question: And the T/C (dose: 75.0 mg/kg/injection, schedule: Q04DX003 (ip), vehicle: Klucel (hydroxypropylcellulose) (HPC))?
Answer: The T/C was 93 % of control.

Question: Which T/C (dose: 25.0 mg/kg/injection, schedule: Q04DX003 (ip), vehicle: suspension in saline) does the source give for `N/C(=N/N=C/c1cc(Br)cc(Br)c1O)NO` here?
Answer: The T/C was 98 % of control.

Question: And the T/C (dose: 50.0 mg/kg/injection, schedule: Q04DX003 (ip), vehicle: suspension in saline)?
Answer: Its T/C is 96 % of control.

Question: And the T/C (dose: 100.0 mg/kg/injection, schedule: Q04DX003 (ip), vehicle: suspension in saline)?
Answer: The T/C was 86 % of control.

Question: Which T/C (dose: 1.0 mg/kg/injection, schedule: Q04DX003 (ip), vehicle: suspension in saline) does the source give for `CC1Oc2cc3c(-c4c(O)cc(O)c5c(O)c6c(cc45)OC(C)C(C)C6=O)c(O)cc(O)c3c(O)c2C(=O)C1C` (stereo not given) here?
Answer: The T/C was 124 % of control.

Question: What about the T/C (dose: 4.0 mg/kg/injection, schedule: Q04DX003 (ip), vehicle: suspension in saline) of the same molecule?
Answer: The T/C was 152 % of control.

Question: What does the source list for `NC(Cn1ccc(=O)c(O)c1)C(=O)O` (stereo not given)?
Answer: T/C (dose: 75.0 mg/kg/injection, schedule: Q04DX003 (ip), vehicle: suspension in saline): 105 % of control; T/C (dose: 150.0 mg/kg/injection, schedule: Q04DX003 (ip), vehicle: suspension in saline): 105 % of control; T/C (dose: 300.0 mg/kg/injection, schedule: Q04DX003 (ip), vehicle: suspension in saline): 109 % of control; T/C (dose: 600.0 mg/kg/injection, schedule: Q04DX003 (ip), vehicle: suspension in saline): 100 % of control; T/C (dose: 1200.0 mg/kg/injection, schedule: Q04DX003 (ip), vehicle: suspension in saline): 104 % of control
